Columns and labels:
[1] = tested on: cultured human mast cells (CHMC); test: CHMC low cell density IgE activation: tryptase assay; type: cell-based; conditions: anti-IgE
In short: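 Supernatant tryptase activity, assayed with substrate for 30 min at room temperature, served as the degranulation measure. Mast cells (1000-1500 per well depending on donor) sat 1 hr at 37° C in MT before a 30 min anti-IgE challenge at 37° C.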

[2] = tested on: cultured human mast cells (CHMC); test: CHMC low cell density ionomycin activation: tryptase assay; type: cell-based

Compound | IC50 [1] [µM] | IC50 [2] [µM]
CNC(=O)COc1cccc(Nc2ncc(F)c(Nn3cccc3)n2)c1 [R935281, 5-Fluoro-N2-[3-(N-methylaminocarbonylmethyleneoxy)phenyl]-N4-(1H-pyrrol-1-yl)-2,4-pyrimidinediamine] | 1.4 | > 10
CC(C)(CO)c1ccc(Nc2ncc(F)c(Nc3cccc(O)c3)n2)cc1 [R935171, 5-Fluoro-N2-[4-(2-hydroxy-1,1-dimethylethyl)phenyl]-N4-(3-hydroxyphenyl)-2,4-pyrimidinediamine] | 0.536 | > 10
CNC(=O)COc1ccc(Nc2ncc(F)c(Nc3ccc4c(c3)OCCCO4)n2)cc1 [R935184, 5-Fluoro-N2-[4-(N-methylamino)carbonylmethyleneoxyphenyl]-N4-(3,4-propylenedioxyphenyl)-2,4-pyrimidinediamine] | 0.605 | > 10
CCOC(=O)COc1ccc(Nc2nc(Nc3ccc(OCC(=O)OCC)cc3)c(NC(=O)Nc3ccccc3)c(C(=O)OCC)n2)cc1 [R926571, N2,N4-Bis(4-ethoxycarbonylmethyleneoxyphenyl)-6-ethoxycarbonyl-5-(phenylaminocarbonylamino)-2,4-pyrimidinediamine] | > 10 | > 10
COC(=O)COc1ccc(Nc2ncc(F)c(Nc3ccc(OC(C)C)cc3)n2)cc1 [R935159, 5-Fluoro-N4-(4-isopropoxyphenyl)-N2-(4-methoxycarbonylmethyleneoxyphenyl)-2,4-pyrimidinediamine] | 0.232 | 4.13
CSc1nc(Nc2cccc(O)c2)nc(Nc2cccc(O)c2)c1Cl [R926595, N2,N4-Bis(3-hydroxyphenyl)-5-chloro-6-thiomethyl-2,4-pyrimidinediamine] | 4.85 | > 10
N2-(3-Ethylcarboxy-4H-imidazo[5,1-c]-1,4-benzoxazin-6-yl)-5-fluoro-N4-(3-hydroxyphenyl)pyrimidinediamine [R909267] | 0.589 | > 10
O=C(O)COc1ccc(Nc2ncc(F)c(Nc3cccc(O)c3)n2)cc1 [R926564, N2-(4-Carboxymethyleneoxyphenyl)-5-Fluoro-N4-(3-hydroxyphenyl)-2,4-pyrimidinediamine] | 3.75 | > 10
CCOC(=O)c1cnc(N[C@H](C(=O)OCC)C(C)C)nc1N[C@H](C(=O)OCC)C(C)C [R926527, 2,4-Bis[N-(L)-valinylethyl ester]-5-ethoxycarbonylpyrimidine] | > 10 | > 10
CCOC(=O)C(C)(C)c1ccc(Nc2ncc(F)c(Nc3cccc(O)c3)n2)cc1 [R935152, N2-[4-[(1-Ethoxycarbonyl-1-methyl)ethyl]phenyl]-5-fluoro-N4-(3-hydroxyphenyl)-2,4-pyrimidinediamine] | 0.505 | 9.32
Cn1ncc2cc(Nc3ncc(F)c(Nc4ccc(Cl)cc4)n3)ccc21 [R935351, N4-(4-Chlorophenyl)-5-fluoro-N2-(1-methyl-indazoline-5-yl)-2,4-pyrimidinediamine] | > 10 | > 10
OCCCn1ncc2ccc(Nc3ncc(F)c(Nc4ccc5oc(CO)cc5c4)n3)cc21 [R935308, 5-Fluoro-N4-(2-hydroxymethylbenzofur-5-yl)-N2-[1-(3-hydroxypropyl)indazoline-6-yl]-2,4-pyrimidinediamine] | 0.275 | > 10
COC(=O)Cn1ncc2cc(Nc3nc(Nc4cccc(O)c4)ncc3F)ccc21 [R935250, 5-Fluoro-N2-(3-hydroxyphenyl)-N4-[1-(methoxycarbonyl)methyl-indazoline-5-yl]-2,4-pyrimidinediamine] | 1.1 | > 10
CCOC(=O)COc1ccc(Nc2ncc(C(F)(F)F)c(Nc3ccc(OCC(=O)OCC)cc3)n2)cc1 [R925862, N2,N4-Bis[4-(ethoxycarbonylmethyleneoxy)phenyl]-5-trifluoromethyl-2,4-pyrimidinediamine] | 0.7 | > 10
5-Cyano-N2-(3-hydroxyphenyl)-N4-(methoxycarbonylbenzyl)-2,4-pyrimidinediamine [R925821] | > 10 | > 10
CNC(=O)COc1cccc(Nc2ncc(F)c(Nc3ccc(C)c(C(F)(F)F)c3)n2)c1 [R926922, 5-Fluoro-N2-[3-[(N-methylamino)carbonylmethyleneoxy]phenyl]-N4-(4-methyl-3-trifluoromethylphenyl)-2,4-pyrimidinediamine] | 0.305 | > 10
Fc1cnc(Nc2ccc3[nH]ncc3c2)nc1Nc1ccc2[nH]ncc2c1 [R935189, N2,N4-Bis(indazolin-5-yl)-5-fluoro-2,4-pyrimidinediamine] | 0.619 | > 10
Cn1cc2cc(Nc3ncc(F)c(Nc4cccc(O)c4)n3)ccc2n1 [R935299, 5-Fluoro-N4-(3-hydroxyphenyl)-N2-(2-methy-indazoline-5-yl)-2,4-pyrimidinediamine] | 0.21 | > 10
CCOC(=O)c1cnc(Nc2cccc3cn[nH]c23)nc1Nc1cccc2cn[nH]c12 [R926321, N2,N4-Bis(3-indazol-7-yl)-5-ethoxycarbonyl-2,4-pyrimidinediamine] | > 10 | > 10
CNC(=O)COc1cccc(Nc2ncc(F)c(Nc3ccc(OC)c(C(F)(F)F)c3)n2)c1 [R926835, 5-Fluoro-N4-(4-methoxy-3-trifluoromethylphenyl)-N2-[3-(N-methylamino)carbonylmethyleneoxyphenyl]-2,4-pyrimidinediamine] | 0.296 | > 10
Cn1nnc(COc2ccc(Nc3nccc(Nc4cccc(O)c4)n3)cc2)n1 [R920910, N4-(3-Hydroxyphenyl)-N2-[4-(2-methyl-1,2,3,4-tetrazol-5-yl)methyleneoxyphenyl]-2,4-pyrimidineamine] | 0.751 | 7.92
CCOC(=O)CCn1ncc2ccc(Nc3ncc(F)c(Nc4ccc5c(c4)OCCO5)n3)cc21 [R935286, N2-[1-(2-ethoxycarbonylethyl)indazoline-6-yl]-N4-(3,4-ethylenedioxyphenyl)-5-fluoro-2,4-pyrimidinediamine] | 1.16 | > 10
COc1cccc(Nc2nc(Nc3cccc(OCC(=O)NCC(O)CO)c3)ncc2F)c1 (stereo not drawn) [R926739, N2-[3-(N-2,3-Dihydroxypropylamino)carbonylmethyleneoxyphenyl]-5-fluoro-N4-(3-methoxyphenyl)-2,4-pyrimidinediamine] | 0.508 | > 10
CNC(=O)COc1cccc(Nc2ncc(F)c(Nc3ccc(F)c(C)c3)n2)c1 [R926923, 5-Fluoro-N4-(4-fluoro-3-methylphenyl)-N2-[3-[(N-methylamino)carbonylmethyleneoxy]phenyl]-2,4-pyrimidinediamine] | 0.346 | > 10

Second part, the compound after the results:

IC50 [1] [µM] | IC50 [2] [µM] | Compound
1.75 | > 10 | CON=C(N)COc1ccc(Nc2ncc(F)c(Nc3ccc(OCC(N)=NOC)cc3)n2)cc1 [R945096, N2,N4-Bis[4-[2-methoxyimino(amino)ethyleneoxy]phenyl]-5-fluoro-2,4-pyrimidinediamine]
> 10 | > 10 | O=C(O)COc1cccc(Nc2ncc(F)c(Nc3cccc(O)c3)n2)c1 [R945126, N2-(3-Carboxymethyleneoxyphenyl)-5-fluoro-N4-(3-hydroxyphenyl)-2,4-pyrimidinediamine]
0.307 | > 10 | COC(=O)COc1cccc(Nc2ncc(F)c(Nc3cc(C)c(O)c(Cl)c3)n2)c1 [R945148, N4-(3-Chloro-4-hydroxy-5-methylphenyl)-5-fluoro-N2-(3-methoxycarbonylmethyleneoxyphenyl)-2,4-pyrimidinediamine]
1.33 | > 10 | NC(=O)COc1ccc(Nc2nc(Nc3ccc4c(c3)OCCO4)ncc2F)cc1 [R945171, N4-(4-Aminocarbonylmethyleneoxyphenyl)-N2-(3,4-ethylenedioxyphenyl)-5-fluoro-2,4-pyrimidinediamine]
1.87 | > 10 | Cc1noc(COc2cccc(Nc3nc(Nc4cccc(O)c4)ncc3F)c2)n1 [R945130, 5-Fluoro-N2-(3-hydroxyphenyl)-N4-[3-(3-methyl-1,2,4-oxadiazol-5-yl)methyleneoxyphenyl]-2,4-pyrimidinediamine]
0.337 | 7.08 | CC(C)c1cccc(Nc2nc(Nc3ccc4oc(CO)cc4c3)ncc2F)c1 [R940286, 5-Fluoro-N4-(3-isopropylphenyl)-N2-[(2-hydroxymethylene]benzofur-5-yl]-2,4-pyrimidinediamine]
0.356 | > 10 | Fc1cnc(Nc2ccc3cn[nH]c3c2)nc1Nc1ccc2c(c1)OC(F)(F)O2 [R935374, N4-(3,4-Difluoromethylendioxyphenyl)-5-fluoro-N2-(indazoline-6-yl)-2,4-pyrimidinediamine]
3.22 | > 10 | CSc1nc2ccc(Nc3ncc(F)c(Nc4ccc5nc(SC)sc5c4)n3)cc2s1 [R950202, N2,N4-Bis[2-(methylthio)-1,3-benzothiaz-6-yl]-5-fluoro-2,4-pyrimidinediamine]
1.42 | > 10 | CNC(=O)COc1ccc(Nc2nc(Nc3ccc4c(c3)OCCO4)ncc2F)cc1 [R945173, N2-(3,4-Ethylenedioxyphenyl)-5-fluoro-N4-(4-methylaminocarbonylmethyleneoxyphenyl)-2,4-pyrimidinediamine]
0.272 | > 10 | CC(C)c1cccc(Nc2nc(Nc3cccc(OCCO)c3)ncc2F)c1 [R940289, 5-Fluoro-N2-[3-(2-hydroxyethyleneoxy)phenyl]-N4-(3-isopropylphenyl)-2,4-pyrimidinediamine]
> 10 | > 10 | O=C(O)COc1cccc(Nc2ncc(F)c(Nc3ccc(O)c(C(=O)O)c3)n2)c1 [R950291, N4-(3-Carboxy-4-hydroxyphenyl)-5-fluoro-N2-[3-carboxymethyleneoxyphenyl]-2,4-pyrimidinediamine]
0.345 | > 10 | CNC(=O)COc1cccc(Nc2ncc(F)c(Nc3ccc(OCCC(=O)OC)cc3)n2)c1 [R950346, N4-(4-Methoxycarbonylethyleneoxyphenyl)-5-fluoro-N2-[3-(N-methylamino)carbonylmethyleneoxyphenyl]-2,4-pyrimidinediamine]

Source: patent US9499493B2, “2,4-pyrimidinediamine compounds and their uses” (Rigel Pharmaceuticals, Inc., priority 2002, dated 2016)
